# Source: patent US12251368B2, “Continuous administration of pharmaceutical composition for treatment of neurodegenerative disorders” (InTrance Medical Systems Inc., priority 2018, dated 2025)
# Where “and” joins values, the source holds several entries; their conditions need not be identical. Equal entries are not always repeated.
# Experiments:
# [1] = in vivo; cited from earlier work
# [2] = cited from earlier work
# [3] = Storage stability / shelf life of intra-intestinal gel; format: physicochemical
# [4] = cited from earlier work; remark: listed apart in the source
# [5] = intravenous administration (3 mg/kg); cited from earlier work
# [6] = in the presence of COMT inhibitors; literature reports; cited from earlier work
# [7] = target: T1, peripheral dopamine decarboxylase (Homo sapiens, UniProt P20711); conditions: KINSON prescribing information; cited from earlier work
# T1 construct: host or cells: patients (peripheral tissues)
# T1 sequence (P20711 1-480): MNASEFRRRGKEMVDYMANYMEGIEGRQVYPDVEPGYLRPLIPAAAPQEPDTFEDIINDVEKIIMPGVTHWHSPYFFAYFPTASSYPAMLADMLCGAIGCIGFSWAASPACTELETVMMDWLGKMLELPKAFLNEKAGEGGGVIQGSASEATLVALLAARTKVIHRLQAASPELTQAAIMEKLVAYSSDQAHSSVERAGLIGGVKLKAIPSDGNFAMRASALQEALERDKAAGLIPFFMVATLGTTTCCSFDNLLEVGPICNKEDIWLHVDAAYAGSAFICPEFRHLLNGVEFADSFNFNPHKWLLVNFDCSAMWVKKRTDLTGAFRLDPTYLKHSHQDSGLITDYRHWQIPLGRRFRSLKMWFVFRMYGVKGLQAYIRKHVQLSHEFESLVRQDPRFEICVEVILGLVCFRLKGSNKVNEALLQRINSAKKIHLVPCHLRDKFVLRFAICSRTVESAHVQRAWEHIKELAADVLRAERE
smiles,measurement,setting,value
"NCCc1ccc(O)c(O)c1 [dopamine, 3,4-dihydroxyphenethylamine]",crossing of the blood-brain barrier,[1],does not cross the blood-brain barrier
"N[C@@H](Cc1ccc(O)c(O)c1)C(=O)O [Levodopa, (−)-L-α-amino-β-(3,4-dihydroxybenzene) propanoic acid]",crossing of the blood-brain barrier,[1],does cross the blood-brain barrier
same,bioavailability,"[2]; administered via DUODOPA gel, same as in a tablet",81-98%
same,fraction metabolized to dopamine before levodopa reaches the brain,[2]; intake of levodopa alone,more than 90%
same,stability in intra-intestinal gel,[3]; prior art LCIG and gel compositions of the invention,relatively stable
same,solubility in water,[4],slightly soluble in water
"Cc1ccc(C(=O)c2cc(O)c(O)c([N+](=O)[O-])c2)cc1 [Tolcapone, (3,4-Dihydroxy-5-nitrophenyl)(4-methylphenyl)methanone]",elimination half-life,[5],2.9 h
same,Levodopa bioavailablity increase,[6],33% and 25%
"C[C@@](Cc1ccc(O)c(O)c1)(NN)C(=O)O [Carbidopa, (−)-L-α-hydrazino-α-methyl-β-(3,4-dihydroxybenzene) propanoic acid monohydrate]",crossing of the blood-brain barrier,[1],does not cross the blood-brain barrier
same,effect of storage in a light reducing container on degradation,"[3]; light reducing container, such as an aluminum bag",some positive effect
same,solubility in water,[4],slightly soluble in water
same,dose at which peripheral dopamine decarboxylase is saturated,[7],70-100 mg per day
